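Tested at 5 concentrations; 48 h exposure; 96-well plates; endpoints linearly interpolated, else capped at highest concentration. The concentration for full growth arrest is given as TGI.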 Where a SMILES comes first, the peptide text is derived from it. [ ]: non-standard residue; d: D form. ΔPro = O=C(O)[CH]1C=CCN1
Tests used:
Assay in all cases: NCI anticancer screen, dose series, 48 h
SW-620 colon = system: SW-620 colon
OVCAR-8 ovarian = system: OVCAR-8 ovarian
CAKI-1 renal = system: CAKI-1 renal
A498 renal = system: A498 renal
OVCAR-3 ovarian = system: OVCAR-3 ovarian
T-47D breast = system: T-47D breast
LOX IMVI melanoma = system: LOX IMVI melanoma
SN12C renal = system: SN12C renal
SNB-19 CNS = system: SNB-19 CNS
HCC-2998 colon = system: HCC-2998 colon
HCT-15 colon = system: HCT-15 colon
OVCAR-4 ovarian = system: OVCAR-4 ovarian
UO-31 renal = system: UO-31 renal
NCI-H226 lung = system: NCI-H226 lung

SMILES	TGI (SW-620 colon)	TGI (OVCAR-8 ovarian)	TGI (CAKI-1 renal)	TGI (A498 renal)	TGI (OVCAR-3 ovarian)	TGI (T-47D breast)	TGI (LOX IMVI melanoma)	TGI (SN12C renal)	TGI (SNB-19 CNS)	TGI (HCC-2998 colon)	TGI (HCT-15 colon)	TGI (OVCAR-4 ovarian)	TGI (UO-31 renal)	TGI (NCI-H226 lung)
CCN(CC)C1Oc2cc3c(cc2C(c2cc(OC)c(O)c(OC)c2)C1C)OCO3 (centres undefined)	20.9 µM	38.8 µM	> 72.9 µM	64.8 µM	25.9 µM	> 73.4 µM	29 µM	36.7 µM	44.2 µM	21.4 µM	> 38.6 µM	> 82.2 µM	> 100 µM	52.3 µM
COC(=O)C1(C(=O)OC)N=C(C)OC1c1ccccc1O (centres undefined)	> 100 µM	> 100 µM	> 100 µM	> 100 µM	> 100 µM	> 100 µM	> 100 µM	> 100 µM	> 100 µM	> 100 µM	> 100 µM	> 100 µM	> 100 µM	> 100 µM
CN(C)c1ccc(C=Nc2ccc(-c3nc4ccccc4s3)cc2)cc1	> 100 µM	> 100 µM	> 100 µM	37.1 µM	57.6 µM	73.9 µM	94.8 µM	> 100 µM	> 100 µM	44.5 µM	> 100 µM	> 100 µM	> 100 µM	> 100 µM
CC(O)CNC(=O)Nc1c(C(F)(F)F)cc(-c2ccccc2)[nH]c1=O (centres undefined)	> 100 µM	> 100 µM	> 100 µM	> 100 µM	> 100 µM	> 100 µM	> 100 µM	> 100 µM	> 100 µM	> 100 µM	> 100 µM	> 100 µM	> 100 µM	> 100 µM
C=C(COCO)C(C)=O	11.1 µM	24.6 µM	5.42 µM	49 µM	26.6 µM	36.7 µM	31.7 µM	33 µM	> 100 µM	> 58.4 µM	39.6 µM	37.2 µM	25.7 µM	> 100 µM
C/C(=C\COP(=O)(O)OP(=O)(O)O)CCCCCCOCc1ccccc1	> 100 µM	> 100 µM	> 100 µM	> 100 µM	> 100 µM	> 100 µM	> 100 µM	> 100 µM	> 100 µM	> 100 µM	> 100 µM	> 100 µM	> 100 µM	> 100 µM
O=C(O)C1C=CCN1C(=O)C1C=CCN1C(=O)C1C=CCN1 (centres undefined) (H-[ΔPro]-[ΔPro]-[ΔPro]-OH; configuration not given here)	> 100 µM	> 100 µM	> 100 µM	> 100 µM	> 100 µM	> 100 µM	> 100 µM	> 100 µM	> 100 µM	> 100 µM	> 100 µM	> 100 µM	> 100 µM	> 100 µM
[N-]=[N+]=NC1C(O)C(CO)OC1n1ccc(N)nc1=O (centres undefined)	> 625 µM	> 625 µM	> 625 µM	> 625 µM	> 595 µM	> 189 µM	> 625 µM	615 µM	> 625 µM	> 581 µM	> 625 µM	> 625 µM	616 µM	> 625 µM
CC(=O)NS(=O)(=O)c1ccc(NCc2cccc3c(=O)c4ccc(Cl)cc4oc23)cc1	> 100 µM	> 49.1 µM	69.6 µM	> 100 µM	> 93.3 µM	> 100 µM	> 100 µM	> 100 µM	> 100 µM	> 100 µM	> 55.4 µM	> 100 µM	> 100 µM	> 100 µM
CN(C)[C@@H]1C(=O)C(C(=O)NCNc2nc3n[nH]nc3c(=O)[nH]2)=C(O)[C@@]2(O)C(=O)C3=C(O)c4c(O)cccc4[C@@](C)(O)[C@H]3C[C@@H]12	> 56.2 µM	> 100 µM	> 100 µM	> 100 µM	> 74.2 µM	> 100 µM	17.3 µM	> 91.2 µM	> 100 µM	> 100 µM	> 100 µM	> 58.3 µM	18.5 µM	56.9 µM
CN1CCN(c2cc3nc(-c4ccc(Cl)cc4)[nH]c3cc2F)CC1	> 64.4 µM	> 100 µM	73.4 µM	47.4 µM	25.7 µM	65.7 µM	> 65.6 µM	> 100 µM	> 81.8 µM	16.7 µM	17.9 µM	> 62.7 µM	20.6 µM	33.9 µM
N#Cc1c(Cl)cc(C#N)n2c1nc1ccccc12	9.1 µM	21 µM	16.7 µM	49.9 µM	10.7 µM	11.1 µM	7.02 µM	38.6 µM	> 84.7 µM	40.9 µM	21.2 µM	41.9 µM	19 µM	71 µM
COC(=O)[C@@H]1C[C@@H](O)CN1C(=O)c1ccc([N+](=O)[O-])cc1[N+](=O)[O-]	> 100 µM	> 100 µM	> 100 µM	> 100 µM	> 100 µM	> 100 µM	> 100 µM	> 100 µM	> 100 µM	> 100 µM	> 100 µM	> 100 µM	> 100 µM	> 100 µM
COC(=O)[C@@H]1CN(C(=O)CCc2ccccc2)C(=O)N1	> 100 µM	> 100 µM	> 100 µM	> 100 µM	> 100 µM	> 100 µM	> 100 µM	> 100 µM	> 100 µM	> 100 µM	> 100 µM	> 100 µM	> 100 µM	> 100 µM
CC1=NN(c2ccc(S(=O)(=O)O)cc2)C2(C1)C(Cl)C(=O)N2c1nc2ccccc2s1 (centres undefined)	> 100 µM	> 100 µM	> 100 µM	> 100 µM	> 100 µM	> 100 µM	> 100 µM	> 100 µM	> 100 µM	> 100 µM	> 100 µM	> 100 µM	> 100 µM	> 100 µM
O=Cc1ccc2ccocc1-2	> 100 µM	> 100 µM	> 100 µM	> 100 µM	> 100 µM	> 100 µM	> 100 µM	> 100 µM	> 100 µM	> 100 µM	> 100 µM	> 100 µM	> 100 µM	> 100 µM
O=C1C=C(c2ccccc2)OC1C1Sc2ccccc2NC1=O (centres undefined)	> 100 µM	> 46.4 µM	> 100 µM	> 31.5 µM	18.9 µM	> 100 µM	> 64.6 µM	68.8 µM	> 82.8 µM	> 31.3 µM	> 100 µM	> 100 µM	76.1 µM	> 83.3 µM
CSC1=NN(C(C)=O)C(C(OC(C)=O)C(OC(C)=O)C(OC(C)=O)C(COC(C)=O)OC(C)=O)S1 (centres undefined)	> 100 µM	> 100 µM	> 100 µM	> 100 µM	> 100 µM	> 100 µM	> 100 µM	> 100 µM	> 100 µM	> 100 µM	> 100 µM	> 100 µM	> 100 µM	> 100 µM
O=C1Nc2ccc(Br)cc2/C1=N/S(=O)(=O)O	> 100 µM	> 100 µM	> 100 µM	> 100 µM	> 100 µM	> 100 µM	28 µM	37 µM	> 100 µM	> 100 µM	> 100 µM	44.1 µM	> 100 µM	> 100 µM
Cn1nnc2c(C(N)=S)ncn2c1=O	> 100 µM	> 100 µM	> 100 µM	> 100 µM	> 100 µM	> 100 µM	> 100 µM	> 100 µM	> 100 µM	> 100 µM	> 100 µM	> 100 µM	> 100 µM	> 100 µM
CCc1n[nH]c(=O)n1CC	> 100 µM	> 100 µM	> 100 µM	> 100 µM	> 100 µM	> 100 µM	> 100 µM	> 100 µM	> 100 µM	> 100 µM	> 100 µM	> 100 µM	> 100 µM	> 100 µM

From PubChem BioAssay (NCI)
